# Source: patent EP1561465A2, “Methods of use of fluoroquinolone compounds against bacteria” (LG Life Sciences, Ltd., priority 1999, dated 2001)
# Like-named read-outs stand apart in the source and are kept apart here.
# Assays:
# Format in all cases: cell-based
# [1] = tested on: Streptococcus pneumoniae; assay: MIC by NCCLS reference broth microdilution, 450 respiratory tract pathogens; settings: Streptococcus pneumoniae
# [2] = tested on: Haemophilus influenzae; assay: as above; settings: Haemophilus influenzae; for MIC90: read-out: MIC90
# [3] = tested on: Klebsiella pneumoniae; assay: as above; settings: for MIC50 / MIC90: Klebsiella pneumoniae
# [4] = tested on: Streptococcus pneumoniae; assay: MIC by two-fold serial agar dilution, Sensitivity Disk agar-N (Kitasato isolates); settings: for MIC90: read-out: MIC90; for MIC: read-out: MIC Range
# [5] = tested on: E. coli; assay: microbe, parasite or virus in culture; settings: Escherichia coli
# [6] = tested on: P. aeruginosa; assay: MIC by two-fold serial agar dilution, quinolone-resistant strains; settings: Pseudomonas aeruginosa
# [7] = tested on: Streptococcus pyogenes; assay: MIC by NCCLS broth microdilution, 1100 Japanese clinical isolates 1997-1998; settings: Streptococcus pyogenes (n=51)
# [8] = tested on: Escherichia coli; assay: as above; settings: for MIC50 / MIC90: Escherichia coli
# [9] = tested on: Klebsiella oxytoca; assay: as above; settings: Klebsiella oxytoca (n=40)
# [10] = tested on: Shigella spp.; assay: as above; settings: Shigella spp. (n=34)
# [11] = tested on: Proteus mirabilis; assay: as above; settings: Proteus mirabilis (n=30)
# [12] = tested on: Gram positive anaerobic and facultative anaerobic pathogens; assay: microbe, parasite or virus in culture
# [13] = Streptococcus pneumoniae (n = 100)
# [14] = erythromycin resistant M phenotype (n = 16)
# [15] = erythromycin resistant MLSB phenotype (n = 16)
# [16] = penicillin intermediate (n = 16)
# [17] = penicillin susceptible (n = 20)
# [18] = Haemophilus influenzae (n = 100)
# [19] = extended spectrum β-lactamase negative (n = 30)
# [20] = extended spectrum β-lactamase positive (n = 20)
# [21] = Escherichia coli ciprofloxacin resistant (n=5)
# [22] = Escherichia coli ciprofloxacin susceptible (n=37)
compound,measurement,setting,value
"C[C@@H]1CN(c2c(F)c(N)c3c(=O)c(C(=O)O)cn(C4CC4)c3c2F)C[C@H](C)N1 [Sparfloxacin, sparfloxacin]",MIC,[1]; [13],0.12 to 1 µg/mL
same,MIC50,[1]; [13],0.5 µg/mL
same,MIC90,[1]; [13],0.5 µg/mL
same,MIC,[1]; [14],0.25 µg/mL
same,MIC50,[1]; [14],0.25 µg/mL
same,MIC90,[1]; [14],0.25 µg/mL
same,MIC,[1]; [15],0.12 to 0.5 µg/mL
same,MIC50,[1]; [15],0.25 µg/mL
same,MIC90,[1]; [15],0.25 µg/mL
same,MIC,[1]; multi-drug resistant (n = 16),0.12 to 0.5 µg/mL
same,MIC50,[1]; multi-drug resistant (n = 16),0.5 µg/mL
same,MIC90,[1]; multi-drug resistant (n = 16),0.5 µg/mL
same,MIC,[1]; [16],0.5 to 1 µg/mL
same,MIC50,[1]; [16],0.5 µg/mL
same,MIC90,[1]; [16],0.5 µg/mL
same,MIC,[1]; penicillin resistant (n = 18),0.25 to 1 µg/mL
same,MIC50,[1]; penicillin resistant (n = 18),0.5 µg/mL
same,MIC90,[1]; penicillin resistant (n = 18),1 µg/mL
same,MIC,[1]; [17],0.12 to 0.5 µg/mL
same,MIC50,[1]; [17],0.25 µg/mL
same,MIC90,[1]; [17],0.25 µg/mL
same,MIC,[2]; [18],0.0075 to 0.25 µg/mL
same,MIC50,[2]; [18],0.01 µg/mL
same,MIC90,[2]; [18],0.03 µg/mL
same,MIC,[2]; β-lactamase negative (n = 80),0.0075 to 0.25 µg/mL
same,MIC50,[2]; β-lactamase negative (n = 80),0.015 µg/mL
same,MIC90,[2]; β-lactamase negative (n = 80),0.25 µg/mL
same,MIC,[2]; β-lactamase positive (n = 20),0.0075 to 0.12 µg/mL
same,MIC50,[2]; β-lactamase positive (n = 20),0.015 µg/mL
same,MIC90,[2]; β-lactamase positive (n = 20),0.03 µg/mL
same,MIC Range,[3]; Klebsiella pneumoniae (n = 50),≤0.0075 to 1 µg/mL
same,MIC50,[3]; Klebsiella pneumoniae (n = 50),0.06 µg/mL
same,MIC90,[3]; Klebsiella pneumoniae (n = 50),0.5 µg/mL
same,MIC50,[3]; [19],0.03 µg/mL
same,MIC90,[3]; [19],0.12 µg/mL
same,MIC50,[3]; [20],0.5 µg/mL
same,MIC90,[3]; [20],0.5 µg/mL
same,MIC Range,[3]; [19],≤0.0075 to 0.25 µg/mL
same,MIC Range,[3]; [20],0.03 to 0.5 µg/mL
same,MIC50,[4]; Ciprofloxacin-susceptible (94),0.125 µg/mL
same,MIC Range,[4]; Minocycline-resistant (37),0.125 to 8 µg/mL
same,MIC50,[4]; Streptococcus pneumoniae,0.125 µg/mL
same,MIC90,"[4]; Streptococcus pneumoniae, 18 h, Ciprofloxacin-resistant (21), ciprofloxacin MIC ≥8 µg/ml",8 µg/mL
same,MIC,"[4]; Streptococcus pneumoniae, 18 h, Ciprofloxacin-resistant (21)",0.25 to 8 µg/mL
same,MIC,"[4]; Streptococcus pneumoniae, 18 h, Ciprofloxacin-susceptible (94)",0.063 to 0.5 µg/mL
same,MIC,"[4]; Streptococcus pneumoniae, 18 h, Penicillin-resistant (19)",0.063 to 1 µg/mL
same,MIC,"[4]; Streptococcus pneumoniae, 18 h",0.125 to 8 µg/mL
same,MIC50,"[4]; Streptococcus pneumoniae, Ciprofloxacin-resistant (21), read-out: MIC50",4 µg/mL
same,MIC90,"[4]; Streptococcus pneumoniae, Ciprofloxacin-susceptible (94)",0.25 µg/mL
same,MIC50,"[4]; Streptococcus pneumoniae, Erythromycin-resistant (37), read-out: MIC50",0.25 µg/mL
same,MIC90,"[4]; Streptococcus pneumoniae, Erythromycin-resistant (37)",0.5 µg/mL
same,MIC50,"[4]; Streptococcus pneumoniae, Minocycline-resistant (37), read-out: MIC50",0.25 µg/mL
same,MIC90,"[4]; Streptococcus pneumoniae, Minocycline-resistant (37)",0.5 µg/mL
same,MIC90,"[4]; Streptococcus pneumoniae, Penicillin-resistant (19)",0.5 µg/mL
same,MIC50,"[5]; E. coli (13 strains), quinolone-resistant, read-out: MIC50",0.125 µg/mL
same,MIC90,"[5]; E. coli (13 strains), quinolone-resistant, read-out: MIC90",0.5 µg/mL
same,MIC,"[5]; E. coli KU1029, mutant type SP (spontaneous mutant in the DNA gyrase)",0.031 µg/mL
same,MIC,"[5]; E. coli KU1030, mutant type SP",0.063 µg/mL
same,MIC,"[5]; E. coli KU1031, mutant type SP",0.031 µg/mL
same,MIC,"[5]; E. coli KU1032, mutant type SP",0.125 µg/mL
same,MIC,"[5]; E. coli KU1033, mutant type SP",0.031 µg/mL
same,MIC,"[5]; E. coli KU1034, mutant type GA (DNA gyrase A)",0.5 µg/mL
same,MIC,"[5]; E. coli KU1035, mutant type GA (DNA gyrase A)",0.5 µg/mL
same,MIC,"[5]; E. coli KU1036, mutant type GB (DNA gyrase B)",0.063 µg/mL
same,MIC,"[5]; E. coli KU1038, mutant type SP",0.031 µg/mL
same,MIC,"[5]; E. coli KU1039, mutant type SP",0.25 µg/mL
same,MIC,"[5]; E. coli KU1040, mutant type SP",≤ 0.008 µg/mL
same,MIC,"[5]; E. coli KU1041, mutant type SP",0.25 µg/mL
same,MIC,"[5]; E. coli KU1042, mutant type SP",0.063 µg/mL
same,MIC,[6],2 µg/mL
same,MIC90,[7],1 µg/mL
same,MIC Range,[7],0.25 to 1 µg/mL
same,MIC50,[7]; read-out: MIC50,0.5 µg/mL
same,MIC Range,[8]; [21],8 to 128 µg/mL
same,MIC Range,[8]; [22],≤0.008 to 0.25 µg/mL
same,MIC50,[8]; [21],32 µg/mL
same,MIC90,"[8]; Escherichia coli ciprofloxacin resistant (n=5), values marked *: MIC80 value",128 µg/mL
same,MIC50,[8]; [22],0.016 µg/mL
same,MIC90,[8]; [22],0.032 µg/mL
same,MIC50,[9],0.063 µg/mL
same,MIC90,[9],8 µg/mL
same,MIC Range,[9],0.016 to 32 µg/mL
same,MIC50,[10],≤ 0.008 µg/mL
same,MIC90,[10],0.032 µg/mL
same,MIC Range,[10],≤0.008 to 0.032 µg/mL
same,MIC Range,[11],0.063 to 16 µg/mL
same,MIC50,[11]; read-out: MIC50,0.25 µg/mL
same,MIC90,[11]; read-out: MIC90,0.5 µg/mL
same,MIC,"[12]; Bifidobacterium adolescentis, ATCC15703",0.5 µg/mL
same,MIC,"[12]; Bifidobacterium bifidum, JCM1255",2 µg/mL
same,MIC,"[12]; Bifidobacterium breve, ATCC15700",2 µg/mL
same,MIC,"[12]; Bifidobacterium longum, ATCC15707",2 µg/mL
same,MIC,"[12]; Bifidobacterium pseudolongum, ATCC25526",2 µg/mL
same,MIC,[12]; Clostridioides difficile,8 µg/mL
same,MIC,"[12]; Clostridium perfringens, ATCC13124",0.125 µg/mL
same,MIC,"[12]; Clostridium septicum, ATCC12464",0.125 µg/mL
same,MIC,"[12]; Cutibacterium acnes, ATCC11828",0.25 µg/mL
same,MIC,"[12]; Eggerthella lenta, ATCC25559",0.5 µg/mL
same,MIC,"[12]; Finegoldia magna, ATCC29328",0.125 µg/mL
same,MIC,"[12]; Gemella morbillorum, ATCC27824",0.25 µg/mL
same,MIC,"[12]; Lacticaseibacillus casei, JCM1134",0.125 µg/mL
same,MIC,"[12]; Lactiplantibacillus plantarum, JCM1149",8 µg/mL
same,MIC,"[12]; Lactobacillus acidophilus, JCM1132",32 µg/mL
same,MIC,"[12]; Levilactobacillus brevis, JCM1059",2 µg/mL
same,MIC,"[12]; Ligilactobacillus salivarius, JCM1231",0.5 µg/mL
same,MIC,"[12]; Limosilactobacillus reuteri, JCM1112",2 µg/mL
same,MIC,"[12]; Limosilactobacillus reuteri, JCM1173",2 µg/mL
same,MIC,"[12]; Paraclostridium sordellii, ATCC9714",2 µg/mL
same,MIC,[12]; Parvimonas micra,0.5 µg/mL
same,MIC,[12]; Peptoniphilus asaccharolyticus,0.25 µg/mL
same,MIC,[12]; Peptoniphilus indolicus,0.06 µg/mL
same,MIC,"[12]; Peptostreptococcus anaerobius, ATCC27337",0.5 µg/mL
same,MIC,[12]; Schaalia odontolytica,4 µg/mL
same,MIC,"[12]; Staphylococcus saccharolyticus, ATCC14953",0.25 µg/mL
same,MIC,"[12]; Streptococcus constellatus, ATCC27823",0.5 µg/mL
same,MIC,"[12]; Streptococcus intermedius, ATCC27335",0.5 µg/mL
same,MIC,"[12]; Thomasclavelia ramosa, ATCC25582",4 µg/mL
